From patent US12121522B2, “Methods of treating cancer with an mTOR inhibitor” (Revolution Medicines, Inc., priority 2022, dated 2024)

What was measured:
[1] = Clinical safety (TEAEs, TRAEs, SAEs, DLTs), study RMC-5552-001
From the text: RMC-5552 is currently being evaluated as a monotherapy in a FIH, dose-escalation, Phase 1/1b study (RMC-5552-001) in adult subjects with advanced relapsed/refractory solid tumors (see Example 3 for additional study protocol details.) The purpose of this study is to evaluate safety, tolerability, preliminary efficacy, PK, and pharmacodynamics of RMC-5552 monotherapy. The primary objective is to characterize the safety and tolerability of RMC-5552 monotherapy and to define the MTD and the Recommended Phase 2 Dose (RP2DS) and schedule for RMC-5552 monotherapy in subjects with relapsed/refractory solid tumors.
Adverse events (AEs) were based on the Medical Dictionary for Regulatory Activities (MedDRA) preferred terms and included the grouped preferred term of stomatitis/mucositis using mucosal inflammation, oral pain, and stomatitis. […] Of note, the grouped term of stomatitis/mucositis comprised events of (based on MedDRA PT) mucosal inflammation, oral pain, and stomatitis.
In the Dose-Escalation Phase, assessment of safety and tolerability will be the primary endpoints and will be directly measured by the incidence of dose-limiting toxicities (DLTs), treatment-emergent adverse events (TEAEs), and serious adverse events (SAEs). The starting dose of RMC-5552 will be 1.6 mg once weekly (QW) via intravenous (IV) infusion. The first cycle of treatment (i.e., first 21 days after treatment initiation) constitutes the DLT evaluation period.
A DLT is defined as a toxicity that is considered at least possibly related to study intervention, occurs within the first 21 days of treatment initiation (i.e., during Cycle 1), and meets at least 1 of the following criteria (with severity graded according to Common Terminology Criteria for Adverse Events [CTCAE] v5): […]

[2] = test system: BLC1521 TSC1 protein-negative bladder cancer; test: BLC1521 bladder cancer xenograft; type: in vivo, mouse
Description: The antitumor activity of RMC-5552 as a single agent against tumors predicted to be dependent on the mTOR pathway and/or bearing specific PI3K/mTOR pathway-activating mutations (i.e., PIK3CA^mut, phosphatase and tensin homolog [PTEN^LOF], or co-mutation of both and tuberous sclerosis complex [TSC^LOF]) was evaluated in selected CDX and/or PDX models
Table 1. RMC-5552 was administered IP once weekly at 1, 3, 10, and 30 mg/kg. In the breast cancer MCF7 PIK3CA^[…] model, a higher dose of 50 mg/kg once weekly and an alternate dose regimen of 30 mg/kg every 10 days were also evaluated.

[3] = 10 mg QW (2-hour infusion) 21-Day cycle (N = 5)

SMILES: CO[C@H]1C[C@@H]2CC[C@@H](C)[C@@](O)(O2)C(=O)C(=O)N2CCCC[C@H]2C(=O)O[C@H]([C@H](C)C[C@@H]2CC[C@@H](OC(=O)NCCOCCOCCOCCOCCOCCOCCOCCOCCC(=O)N3CCc4cc(Cn5nc(-c6ccc7oc(N)nc7c6)c6c(N)ncnc65)ccc4C3)[C@H](OC)C2)C[C@@H](O)[C@H](C)/C=C(\C)[C@@H](O)[C@@H](OC)C(=O)[C@H](C)C[C@H](C)/C=C/C=C/C=C/1C [RMC-5552]
- Treatment-emergent SAE Wound infection, number (%) of subjects ([1]; 1.6 mg QW 21-Day cycle (N = 2)): 0 subjects
- Treatment-emergent SAE Wound infection, number (%) of subjects ([1]; 3 mg QW 21-Day cycle (N = 3)): 0 subjects
- Treatment-emergent SAE Wound infection, number (%) of subjects ([1]; 6 mg QW 21-Day cycle (N = 12)): 0 subjects
- Treatment-emergent SAE Wound infection, number (%) of subjects ([1]; 8 mg QW 21-Day cycle (N = 15)): 1 subjects
- Treatment-emergent SAE Urinary tract infection, number (%) of subjects [1, 3]: 0 subjects
- Treatment-emergent SAE Wound infection, number (%) of subjects [1, 3]: 0 subjects
- Treatment-emergent SAE Wound infection, number (%) of subjects ([1]; 12 mg QW 21-Day cycle (N = 2)): 0 subjects
- Treatment-emergent SAE Urinary tract infection, number (%) of subjects ([1]; Overall (N = 39)): 1 subjects
- Treatment-emergent SAE Wound infection, number (%) of subjects ([1]; Overall (N = 39)): 1 subjects
- DLT rate ([1]; human, in vivo): (3.0%)
- Grade ≥3 TEAE: anemia ([1]; human, in vivo): 15.4%
- Grade ≥3 TEAE: dysphagia ([1]; human, in vivo): 5.1%
- Grade ≥3 TEAE: fatigue ([1]; human, in vivo): 5.1%
- Grade ≥3 TEAE: rash (grouped term) ([1]; human, in vivo): 5.1%
- Grade ≥3 TEAE: stomatitis/mucositis ([1]; human, in vivo): 10.3%
- Grade ≥3 TEAE: urinary tract infection ([1]; human, in vivo): 5.1%
- Number of subjects with any SAE (treatment-emergent) ([1]; human, in vivo): 14 subjects
- SAEs assessed as treatment-related by investigators ([1]; human, in vivo): No SAEs were assessed as treatment-related
- TEAE any grade: abdominal pain ([1]; human, in vivo): 20.5%
- TEAE any grade: anemia ([1]; human, in vivo): 25.6%
- TEAE any grade: decreased appetite ([1]; human, in vivo): 43.6%
- TEAE any grade: diarrhea ([1]; human, in vivo): 23.10%
- TEAE any grade: dyspnea ([1]; human, in vivo): 28.20%
- TEAE any grade: fatigue ([1]; human, in vivo): 61.5%
- TEAE any grade: headache ([1]; human, in vivo): 20.5%
- TEAE any grade: nausea ([1]; human, in vivo): 41.0%
- TEAE any grade: rash (grouped term) ([1]; human, in vivo): 28.20%
- TEAE any grade: vomiting ([1]; human, in vivo): 30.80%
- TRAE: decreased appetite ([1]; human, in vivo): 25%
- TRAE: diarrhea ([1]; human, in vivo): 25%
- TRAE: fatigue ([1]; human, in vivo): 25%
- TRAE: mucositis/stomatitis ([1]; human, in vivo): 35%
- TRAE: nausea ([1]; human, in vivo): 25%
- Treatment-emergent SAE Acute kidney injury, number (%) of subjects ([1]; human, in vivo): 1 subjects
- Treatment-emergent SAE Anaemia, number (%) of subjects ([1]; human, in vivo): 1 subjects
- Treatment-emergent SAE Anemia along with occlusion, number (%) of subjects ([1]; human, in vivo): 1 subjects
- Treatment-emergent SAE Atrial fibrillation, number (%) of subjects ([1]; human, in vivo): 1 subjects
- Treatment-emergent SAE Dehydration, number (%) of subjects ([1]; human, in vivo): 1 subjects
- Treatment-emergent SAE Dyspnea, number (%) of subjects ([1]; human, in vivo): 1 subjects
- Treatment-emergent SAE Embolism, number (%) of subjects ([1]; human, in vivo): 1 subjects
- Treatment-emergent SAE Face Oedema, number (%) of subjects ([1]; human, in vivo): 1 subjects
- Treatment-emergent SAE Failure to Thrive, number (%) of subjects ([1]; human, in vivo): 1 subjects
- Treatment-emergent SAE Fatigue, number (%) of subjects ([1]; human, in vivo): 1 subjects
- Treatment-emergent SAE Hypotension, number (%) of subjects ([1]; human, in vivo): 1 subjects
- Treatment-emergent SAE Large intestinal obstruction, number (%) of subjects ([1]; human, in vivo): 1 subjects
- Treatment-emergent SAE Lower gastrointestinal hemorrhage, number (%) of subjects ([1]; human, in vivo): 1 subjects
- Treatment-emergent SAE Oedema peripheral, number (%) of subjects ([1]; human, in vivo): 1 subjects
- Treatment-emergent SAE Pain in extremity, number (%) of subjects ([1]; human, in vivo): 1 subjects
- Treatment-emergent SAE Pleural effusion, number (%) of subjects ([1]; human, in vivo): 1 subjects
- Treatment-emergent SAE Pneumonia aspiration, number (%) of subjects ([1]; human, in vivo): 1 subjects
- Treatment-emergent SAE Pneumonia, number (%) of subjects ([1]; human, in vivo): 1 subjects
- Treatment-emergent SAE Pneumothorax, number (%) of subjects ([1]; human, in vivo): 1 subjects
- Treatment-emergent SAE Rash maculopapular, number (%) of subjects ([1]; human, in vivo): 1 subjects
- Treatment-emergent SAE Rectourethral fistula, number (%) of subjects ([1]; human, in vivo): 1 subjects
- Treatment-emergent SAE Small intestinal obstruction, number (%) of subjects ([1]; human, in vivo): 1 subjects
- Treatment-emergent SAE Small intestinal perforation, number (%) of subjects ([1]; human, in vivo): 1 subjects
- Treatment-emergent SAE Stomatitis/mucositis, number (%) of subjects ([1]; human, in vivo): 1 subjects
- Treatment-emergent SAE Vascular occlusion, number (%) of subjects ([1]; human, in vivo): 1 subjects
- dose-limiting toxicities ([1]; human, in vivo): no dose-limiting toxicities
- drug-related adverse event: decreased appetite ([1]; human, in vivo): 32%
- drug-related adverse event: fatigue ([1]; human, in vivo): 41%
- drug-related adverse event: nausea ([1]; human, in vivo): 36%
- drug-related adverse event: stomatitis/mucositis ([1]; human, in vivo): 41%
- drug-related adverse event: vomiting ([1]; human, in vivo): 23%
- event of interest: edema peripheral ([1]; human, in vivo): 10.3%
- event of interest: hyperglycemia ([1]; human, in vivo): 7.7%
- event of interest: rash maculo-papular ([1]; human, in vivo): 17.9%
- median duration of resolved stomatitis/mucositis events ([1]; human, in vivo): 12.0 days
- median time to first onset of stomatitis/mucositis ([1]; human, in vivo): 12.5 days
- n/N (DLT rate) ([1]; human, in vivo): 1/33
- related Grade 4 or 5 adverse events ([1]; human, in vivo): No related Grade 4 or 5 adverse events
- treatment-emergent hyperglycemia, patients ([1]; human, in vivo): 6.8%
- TGI ([2]; 3 mg/kg IP QW): 94%
- tumor regression ([2]; 10 mg/kg IP QW): 45% regression
